# Assay results taken from US6630120B1, “Agents to increase the uptake of pharmaceuticals and diagnostic substances into solid tumors” (priority 1999, dated 2003).
# Where two headings read alike, the source gives them in different places.
# Key:
# implanted tumor and lung = experiment: Retention of 14C-carboplatin in solid tumors and in lung; format: in vivo, rat; conditions: FIG. 8
# Protocol: The carboplatin was administered two minutes into a five minute Cereport™ infusion.
# [1] = test system: MAT B-III metastatic lung tumors; experiment: Animal survival with MAT B-III metastatic lung tumors after carboplatin and Cereport; format: in vivo, rat; conditions: FIG. 13
# Protocol: MAT B-III cells were introduced into the lungs of 12 female F-344 Fisher rats by intrajugular injections of either 1×10^5 or 1×10^6 cells in 200 μl suspensions. The cells and animals were maintained and handled as described in Example 1. At various times following the injections, the number of surface tumor colonies on the lungs was assessed. Tumors were visually counted by injecting India ink into the trachea of the animals.
# Finally, the effects of the administration of carboplatin and Cereport™ on the survival of animals who had been subjected to the implantation of MAT B-III metastatic lung surface tumors was assessed. In this study, 1×10^6 MAT B-III cells as a 200 μl suspension were implanted by intrajugular injection in 54 male Fischer rats. Sixteen days later, indwelling cannulae were inserted in the previously implanted jugular vein. On days 16 and 23, the animals received a continuous infusion of 5 mg/kg of carboplatin over a 15 minute period. Immediately following the 15 minute carboplatin infusion, the animals received a 10 minute continuous infusion of either saline or Cereport (1.5 μg/kg). The survival rates for the animals were then monitored.
# [2] = test system: MAT B-III tumor implanted into the liver; conditions: FIG. 6
# Protocol: MAT B-III cells (1×10^6) were implanted directly into the liver of male Fischer rats using a 25G needle and 1 ml tuberculin syringe. Fourteen days later, the animals received a 15 minute i.v. infusion of ^14C-carboplatin (100 μCi/kg) followed immediately by a 10 minute infusion of either saline or Cereport™ at 1.0 μg/kg. Following the saline or Cereport™ infusion, the liver was rapidly removed. The tumor was dissected free of the surrounding liver tissue and divided into inner and outer regions. A 1 mm strip of liver that immediately surrounded the tumor (inner ring) and the adjacent 1 mm strip of liver (outer ring) were also removed and assayed. In addition, an equivalent strip of liver from the untreated lobe, was removed and assayed. This liver strip served as a control.
# [3] = test system: implanted tumor and various organs; conditions: FIG. 7; Cereport 1 μg/kg; carboplatin bolus two minutes into five minute Cereport infusion
# Protocol: The carboplatin was administered as a bolus two minutes into a five minute Cereport™ infusion.
# [4] = test system: MAT B-III tumor in rear flank or mammary fat pads; conditions: FIG. 5; female Fischer rats; 15 min carboplatin then 10 min Cereport 1.0 μg/kg
# Protocol: MAT B-III cells (1×10^6) were implanted in two anatomically distinct sites in female Fischer rats. The tumor cells were implanted into either the subcutaneous space of the rear flank or orthotopically into mammary fat pads. Seven days later, the animals received a 15 minute i.v. infusion of ^14C-Carboplatin (100 μCi/kg) followed immediately by a 10 minute infusion of either saline or Cereport™ at 1.0 μg/kg. Following the saline or Cereport™ infusion, the tumor was rapidly removed and dissected into inner and outer regions. The amount of radioactivity of each tumor region was determined by scintillation counts.
# [5] = target: angiotensin converting enzyme (ACE) (Homo sapiens, UniProt P12821); conditions: general statement, no method given; cited from earlier work
# implanted tumor [6] = conditions: FIG. 10
# Protocol: In some instances, Cereport™ is administered in addition to carboplatin. The carboplatin was infused for 15-minutes followed immediately by a 10 minute infusion of Cereport™ at 1.5 μg/kg.
# [7] = test system: MAT B (III) rat mammary adenocarcinoma tumor implanted in the flank
# Protocol: A series of studies were carried out on rat hosts in which suspended tumor cells had been subcutaneously implanted in the flank of the animal to create a solid tumor in situ. The effects of the administration of Cereport™ on the incorporation of ^14C-carboplatin into the tumor were evaluated.
# Male Fischer rats (170-220 g; Taconic Farms, Germantown, N.Y.) were used in these studies. Animals were housed in pairs in polypropylene cages with free access to food and water. The vivarium was maintained on a 12 h light: 12 h dark cycle with a room temperature of 22±1° C. and relative humidity level of 50±5%.
# The MAT B (III) cell line (ATCC CRL-1666), a rat ascites mammary adenocarcinoma, was used to produce peripheral tumors upon implantation in rats. Cells were grown and maintained at 37° C. in a 95% air/5% CO2 humidified atmosphere using McCoy's medium 5A (GIBCO) supplemented with 20 mM HEPES, 1/2X Antibody-Antimycotic, and 10% heat-inactivated Fetal Bovine Serum.
# Immediately prior to implantation, MAT B-III cells were suspended in 1.2% methyl cellulose at a density of 5×10^6/ml. 200 μl of this suspension (1×10^6 cells) was injected subcutaneously into the flank of each animal using a 22G needle.
# One week after tumor implantation, and under urethane anesthesia (1.8 g/kg; i.p.), cannulae (PE50, Clay Adams, Bectin Dickinson, Sparks, Md.) were placed in the jugular vein for drug administration and both femoral arteries for the measurement of physiological parameters.
# Cereport™ (RMP-7, Alkermes, Inc., Cambridge, Mass.) and ^14C-carboplatin or -dextran (SA=144 μCi/mg and 1.08 μCi/mg respectively) were dissolved in sterile 0.9% saline and infused intravenously using a syringe pump at a rate of 0.05 ml/min over the entire administration period. Using the human clinical protocol as a basis, ^14C-carboplatin or dextran (100 μCi/kg) was infused for 15 minutes followed immediately by a 10 minute infusion of Cereport™. Throughout the experiment, body temperature was maintained normothermic (37.0±1.0° C.) and arterial blood gases, pH, and blood pressure were monitored. Animals with physiological values outside the normal ranges were not used.
# At the end of the drug administration protocol, rats were sacrificed and the peripheral tumor was rapidly removed. A 1-2 mm thick slice was cut from the center of tumor. The slice was then divided into two equal parts comprising the center of the dissected piece (inner tumor) and the outside edge (outer tumor). Each tumor sample was weighed and placed into a scintillation vial and the amount of radioactivity (nCi/g) was computed for each region using scintillation counts as a measure of the radioactivity.
# implanted tumor [8] = conditions: FIG. 14; Cereport infusion for 10 minutes at 1 μg/kg
# Source text: Interstitial fluid pressure is a severe impediment for administered substances into tumor interstitial spaces from the bloodstream.
# Walker 256 tumor = conditions: FIG. 9; male Wistar rats; 15 min carboplatin then 10 min Cereport 1.0 μg/kg
# Protocol: Walker 256 cells (ATCC CCL-38) (1×10^7) were implanted into the subcutaneous space of the rear flank of male Wistar rats to create a solid tumor in situ in the same manner as previously described for the MAT B-III cells. Eight days later, the animals received a 15 minute i.v. infusion of ^14C-carboplatin (100 μCi/kg) followed immediately by a 10 minute infusion of either saline or Cereport™ at 1.0 μg/kg. Following the saline or Cereport™ infusion, the tumor was rapidly removed and dissected into inner and outer regions. The amount of radioactivity of each tumor region was determined by scintillation counts.
# [9] = eighth day, carboplatin plus Cereport 1.5 μg/kg
# Sequence of angiotensin converting enzyme (ACE) (P12821 30-1306, species assumed): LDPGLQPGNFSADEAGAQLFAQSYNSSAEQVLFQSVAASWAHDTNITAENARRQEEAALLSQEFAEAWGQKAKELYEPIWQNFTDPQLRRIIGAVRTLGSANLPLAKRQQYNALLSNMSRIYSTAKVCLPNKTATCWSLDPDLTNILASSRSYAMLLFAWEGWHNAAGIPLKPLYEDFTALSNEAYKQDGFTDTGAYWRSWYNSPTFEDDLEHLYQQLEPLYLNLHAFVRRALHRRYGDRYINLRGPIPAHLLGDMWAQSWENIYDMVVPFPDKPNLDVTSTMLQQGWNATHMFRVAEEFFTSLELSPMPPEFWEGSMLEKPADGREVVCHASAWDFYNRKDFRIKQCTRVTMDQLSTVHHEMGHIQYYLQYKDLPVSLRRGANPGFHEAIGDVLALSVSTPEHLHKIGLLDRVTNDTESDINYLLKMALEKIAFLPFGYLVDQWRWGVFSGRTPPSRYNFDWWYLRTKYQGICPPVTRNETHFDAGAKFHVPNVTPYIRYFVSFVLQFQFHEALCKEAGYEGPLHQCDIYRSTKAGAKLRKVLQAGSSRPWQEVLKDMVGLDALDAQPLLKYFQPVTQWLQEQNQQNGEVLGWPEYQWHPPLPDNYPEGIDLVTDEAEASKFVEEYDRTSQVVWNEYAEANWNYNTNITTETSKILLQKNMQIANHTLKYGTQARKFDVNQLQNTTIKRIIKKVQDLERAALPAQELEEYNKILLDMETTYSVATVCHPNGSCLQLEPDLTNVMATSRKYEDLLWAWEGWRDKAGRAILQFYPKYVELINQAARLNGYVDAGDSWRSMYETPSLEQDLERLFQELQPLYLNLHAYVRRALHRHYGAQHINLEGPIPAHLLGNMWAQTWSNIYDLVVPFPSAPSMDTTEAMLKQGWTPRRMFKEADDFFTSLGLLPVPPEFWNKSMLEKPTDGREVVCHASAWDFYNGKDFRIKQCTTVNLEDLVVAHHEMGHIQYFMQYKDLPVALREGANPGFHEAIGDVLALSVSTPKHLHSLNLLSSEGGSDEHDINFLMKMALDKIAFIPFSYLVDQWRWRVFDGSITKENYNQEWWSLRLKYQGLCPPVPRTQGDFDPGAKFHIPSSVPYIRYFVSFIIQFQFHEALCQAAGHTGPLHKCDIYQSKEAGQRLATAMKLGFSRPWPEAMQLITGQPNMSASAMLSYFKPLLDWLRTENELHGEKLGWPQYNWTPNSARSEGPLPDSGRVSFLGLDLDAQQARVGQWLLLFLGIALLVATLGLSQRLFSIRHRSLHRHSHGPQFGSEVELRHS
compound,measurement,setting,value
N.N.O=C([O-])C1(C(=O)[O-])CCC1.[Pt+2] [carboplatin],retention of carboplatin in tumor tissue,"implanted tumor and lung; after Cereport administration, carboplatin two minutes into five minute Cereport infusion",at least 90 minutes
same,retention of carboplatin in lung,implanted tumor and lung; after the initial uptake following Cereport administration,not retained
same,prolongation of survival versus no carboplatin,[1]; carboplatin 5 mg/kg by itself (followed by saline) on days 16 and 23,approximately 10 days
arginine-proline-hydroxyproline-glycine-thienylalanine-serine-proline-4-Me-tyrosineψ(CH2NH)arginine [Cereport™],carboplatin uptake into tumor implanted in the liver,[2]; 15 min carboplatin then 10 min Cereport 1.0 μg/kg,significantly taken up
same,carboplatin uptake into liver tissue adjacent to the tumor,"[2]; inner and outer ring liver strips, Cereport 1.0 μg/kg",does not have a significant effect
same,carboplatin uptake into control strip of liver,"[2]; strip from untreated lobe, Cereport 1.0 μg/kg",does not have a significant effect
same,"carboplatin uptake in tumor tissue compared with heart, lung and liver",[3],far surpasses
same,"carboplatin uptake into heart, lung and liver",[3],some uptake
same,carboplatin uptake into implanted tumor located in the flank,[4],significantly taken up
same,carboplatin uptake into implanted tumor located in the mammary pad,[4],significantly taken up
same,degradation by angiotensin converting enzyme (ACE),[5],not significantly degraded
same,regression of the implanted tumor in comparison to carboplatin alone,implanted tumor [6]; 15 min carboplatin then 10 min Cereport 1.5 μg/kg,markedly cause regression
same,tumor size relative to size if Cereport had not been administered with the carboplatin,implanted tumor [6]; [9],approximately one half
same,tumor size relative to size if no carboplatin had been administered,implanted tumor [6]; [9],approximately one third
same,carboplatin uptake into inner tumor and outer tumor,"[7]; FIG. 1, carboplatin bolus two minutes into a ten minute Cereport infusion, three Cereport infusion amounts, vs no Cereport",significantly taken up
same,carboplatin uptake into inner tumor and outer tumor,"[7]; FIG. 2, carboplatin bolus two minutes into a five minute Cereport infusion, Cereport 0.5 μg/kg",not significantly taken up
same,carboplatin uptake into inner tumor and outer tumor,"[7]; FIG. 2, carboplatin bolus two minutes into a five minute Cereport infusion, Cereport 0.75 μg/kg",significantly taken up
same,carboplatin uptake into inner tumor and outer tumor,"[7]; FIG. 2, carboplatin bolus two minutes into a five minute Cereport infusion, Cereport 1.0 μg/kg",significantly taken up
same,carboplatin uptake into inner tumor and outer tumor,"[7]; FIG. 2, carboplatin bolus two minutes into a five minute Cereport infusion, Cereport 1.75 μg/kg",significantly taken up
same,carboplatin uptake into inner tumor and outer tumor,"[7]; FIG. 2, carboplatin bolus two minutes into a five minute Cereport infusion, Cereport 2.5 μg/kg",significantly taken up
same,carboplatin uptake into inner tumor and outer tumor,"[7]; FIG. 2, carboplatin bolus two minutes into a five minute Cereport infusion, Cereport 5.0 μg/kg",not significantly taken up
same,carboplatin uptake into inner tumor and outer tumor,"[7]; FIG. 3, carboplatin infused 15 minutes prior to Cereport, Cereport 0.36 μg/kg",possible exception
same,carboplatin uptake into inner tumor and outer tumor,"[7]; FIG. 3, carboplatin infused 15 minutes prior to Cereport, all Cereport doses other than 0.36 μg/kg",significantly taken up
same,dextran (MW 70 kDa) uptake into inner tumor and outer tumor,"[7]; FIG. 4, dextran infused 15 minutes prior to Cereport, three Cereport infusion amounts, vs no Cereport",significantly taken up
same,additional extension of survival profile beyond carboplatin alone,[1]; carboplatin 5 mg/kg followed by Cereport 1.5 μg/kg on days 16 and 23,approximately 10 days
same,decrease of interstitial fluid pressure in implanted tumors,implanted tumor [8],up to 40%
same,carboplatin uptake into inner and outer region of Walker 256 tumor,Walker 256 tumor,significantly taken up
